Assay: recombinant UMI read abundance after kanamycin selection (control-corrected) (log10(CPM+1)); higher = more efficient recombination; extreme values may be limits of the assay; sequences stand for … in AGTGCAGAGAAAATCGGCCAGTTTTCTCTGCCTGCAGTCCGCATGCCGTGGGACCCCTTGGGTTCTAACCTGTTGCCTAGATTTATGCAGCGGACTGCCTTTCTCCCAAAGTGATAAACCGG…AGGTTGGTTTCACT; site = the 11-nt donor
Procedure, shortened: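 In Escherichia coli, a pool of donor and donor-binding-loop pairs, each with a 12-nt UMI, was tested for the IS621 bridge recombinase. Plating was on IPTG (0.07 mM) plus kanamycin, or without selection, in two replicates. Recombinant UMIs were amplified by PCR across the donor–target junction and sequenced, and counts were reported as log10(CPM+1) after averaging and control-derived scaling.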
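Further: IS621 bridge recombinase in Escherichia coli cells against a fixed T5 target plasmid.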

Row | Sequence | recombinant UMI read abundance (log10)
1 | TACCGTCCATGGACCGGTTTTCCCGGTAATCCGTATTTGAT (site CACCGTCCTAT) | 0.00852
2 | TACCGTCCATGGACCGGTTTTCCCGGTAATCCGTATTTGAT (site GACCGTCCTAT) | 0.00523
3 | TACCGTCCATGGACCGGTTTTCCCGGTAATCCGTATTTGAT (site TACCGTCCTAT) | 0.00444
4 | TACCTACCATGGACCGGTTTTCCCGGTAATCCGTATTTGAG (site TACCTACCTCT) | 0.0115
5 | TACCTGACATGGACCGGTTTTCCCGGTAATCCGTATTTGGC (site TACCTGACTGC) | 0
6 | TACGAATCATGGACCGGTTTTCCCGGTAATCCGTATTTGCG (site TAAGAATCTCG) | 0
7 | TACGAATCATGGACCGGTTTTCCCGGTAATCCGTATTTGCG (site TACGAATCTCG) | 2.16
8 | TACGAATCATGGACCGGTTTTCCCGGTAATCCGTATTTGCG (site TAGGAATCTCG) | 0.321
9 | TACGAATCATGGACCGGTTTTCCCGGTAATCCGTATTTGCG (site TATGAATCTCG) | 2.1
10 | TACGATACATGGACCGGTTTTCCCGGTAATCCGTATTTGGA (site TACGATACTTC) | 0.806
11 | TACGCAACATGGACCGGTTTTCCCGGTAATCCGTATTTGAC (site TACGCAACTGT) | 2
12 | TACGGAACATGGACCGGTTTTCCCGGTAATCCGTATTTGCA (site TACGGAACTTG) | 1.47
13 | TACGTCGCATGGACCGGTTTTCCCGGTAATCCGTATTTGGA (site TACGTCGCTTC) | 1.08
14 | TACTGAGCATGGACCGGTTTTCCCGGTAATCCGTATTTGGG (site TAATGAGCTCC) | 0.0256
15 | TACTGAGCATGGACCGGTTTTCCCGGTAATCCGTATTTGGG (site TACTGAGCTCC) | 0.356
16 | TACTGAGCATGGACCGGTTTTCCCGGTAATCCGTATTTGGG (site TAGTGAGCTCC) | 0.0147
17 | TACTGAGCATGGACCGGTTTTCCCGGTAATCCGTATTTGGG (site TATTGAGCTCC) | 0
18 | TACTGCCCATGGACCGGTTTTCCCGGTAATCCGTATTTGGA (site TACTGCCCTTC) | 0.00999
19 | TACTGGGCATGGACCGGTTTTCCCGGTAATCCGTATTTGAA (site TACTGGGCTTT) | 0.637
20 | TACTTGACATGGACCGGTTTTCCCGGTAATCCGTATTTGCA (site TACTTGACTAG) | 0
21 | TACTTGACATGGACCGGTTTTCCCGGTAATCCGTATTTGCA (site TACTTGACTCG) | 0.0381
22 | TACTTGACATGGACCGGTTTTCCCGGTAATCCGTATTTGCA (site TACTTGACTGG) | 0
23 | TACTTGACATGGACCGGTTTTCCCGGTAATCCGTATTTGCA (site TACTTGACTTG) | 0.591
24 | TACTTGACATGGACCGGTTTTCCCGGTAATCCGTATTTGCT (site AACTTGACTAG) | 0
25 | TACTTGACATGGACCGGTTTTCCCGGTAATCCGTATTTGCT (site CACTTGACTAG) | 0.342

Row | Sequence | recombinant UMI read abundance (log10)
26 | TACTTGACATGGACCGGTTTTCCCGGTAATCCGTATTTGCT (site GACTTGACTAG) | 0.00311
27 | TACTTGACATGGACCGGTTTTCCCGGTAATCCGTATTTGCT (site TAATTGACTAG) | 0.201
28 | TACTTGACATGGACCGGTTTTCCCGGTAATCCGTATTTGCT (site TACATGACTAG) | 0.0307
29 | TACTTGACATGGACCGGTTTTCCCGGTAATCCGTATTTGCT (site TACCTGACTAG) | 0.89
30 | TACTTGACATGGACCGGTTTTCCCGGTAATCCGTATTTGCT (site TACGTGACTAG) | 0.16
31 | TACTTGACATGGACCGGTTTTCCCGGTAATCCGTATTTGCT (site TACTAGACTAG) | 0.43
32 | TACTTGACATGGACCGGTTTTCCCGGTAATCCGTATTTGCT (site TACTCGACTAG) | 0.277
33 | TACTTGACATGGACCGGTTTTCCCGGTAATCCGTATTTGCT (site TACTGGACTAG) | 0.46
34 | TACTTGACATGGACCGGTTTTCCCGGTAATCCGTATTTGCT (site TACTTAACTAG) | 0
35 | TACTTGACATGGACCGGTTTTCCCGGTAATCCGTATTTGCT (site TACTTCACTAG) | 0.00555
36 | TACTTGACATGGACCGGTTTTCCCGGTAATCCGTATTTGCT (site TACTTGACTAA) | 0.00336
37 | TACTTGACATGGACCGGTTTTCCCGGTAATCCGTATTTGCT (site TACTTGACTAC) | 0.0348
38 | TACTTGACATGGACCGGTTTTCCCGGTAATCCGTATTTGCT (site TACTTGACTAG) | 1.12
39 | TACTTGACATGGACCGGTTTTCCCGGTAATCCGTATTTGCT (site TACTTGACTAT) | 0.00796
40 | TACTTGACATGGACCGGTTTTCCCGGTAATCCGTATTTGCT (site TACTTGACTCG) | 0
41 | TACTTGACATGGACCGGTTTTCCCGGTAATCCGTATTTGCT (site TACTTGACTGG) | 0
42 | TACTTGACATGGACCGGTTTTCCCGGTAATCCGTATTTGCT (site TACTTGACTTG) | 0.00876
43 | TACTTGACATGGACCGGTTTTCCCGGTAATCCGTATTTGCT (site TACTTGCCTAG) | 0
44 | TACTTGACATGGACCGGTTTTCCCGGTAATCCGTATTTGCT (site TACTTGGCTAG) | 0.00865
45 | TACTTGACATGGACCGGTTTTCCCGGTAATCCGTATTTGCT (site TACTTGTCTAG) | 0.0219
46 | TACTTGACATGGACCGGTTTTCCCGGTAATCCGTATTTGCT (site TACTTTACTAG) | 0
47 | TACTTGACATGGACCGGTTTTCCCGGTAATCCGTATTTGCT (site TAGTTGACTAG) | 0.00537
48 | TACTTGACATGGACCGGTTTTCCCGGTAATCCGTATTTGCT (site TATTTGACTAG) | 0.0574
49 | TACTTGACATGGACCGGTTTTCCCGGTAATCCGTATTTGCT (site TCCTTGACTAG) | 0.255
50 | TACTTGACATGGACCGGTTTTCCCGGTAATCCGTATTTGCT (site TGCTTGACTAG) | 0.0612

Row | Sequence | recombinant UMI read abundance (log10)
51 | TACTTGACATGGACCGGTTTTCCCGGTAATCCGTATTTGCT (site TTCTTGACTAG) | 0
52 | TACTTGCCATGGACCGGTTTTCCCGGTAATCCGTATTTGCT (site TACTTGACTAG) | 0.00966
53 | TACTTGCCATGGACCGGTTTTCCCGGTAATCCGTATTTGCT (site TACTTGCCTAG) | 0.597
54 | TACTTGCCATGGACCGGTTTTCCCGGTAATCCGTATTTGCT (site TACTTGGCTAG) | 0.00743
55 | TACTTGCCATGGACCGGTTTTCCCGGTAATCCGTATTTGCT (site TACTTGTCTAG) | 0.383
56 | TACTTGGCATGGACCGGTTTTCCCGGTAATCCGTATTTGTG (site TAATTGGCTCA) | 0.0141
57 | TACTTGGCATGGACCGGTTTTCCCGGTAATCCGTATTTGTG (site TACTTGGCTCA) | 0.305
58 | TACTTGGCATGGACCGGTTTTCCCGGTAATCCGTATTTGTG (site TAGTTGGCTCA) | 0.017
59 | TACTTGGCATGGACCGGTTTTCCCGGTAATCCGTATTTGTG (site TATTTGGCTCA) | 0.00802
60 | TACTTGTCATGGACCGGTTTTCCCGGTAATCCGTATTTGCT (site TACTTGACTAG) | 0
61 | TACTTGTCATGGACCGGTTTTCCCGGTAATCCGTATTTGCT (site TACTTGCCTAG) | 0.649
62 | TACTTGTCATGGACCGGTTTTCCCGGTAATCCGTATTTGCT (site TACTTGGCTAG) | 0.00306
63 | TACTTGTCATGGACCGGTTTTCCCGGTAATCCGTATTTGCT (site TACTTGTCTAG) | 1.51
64 | TACTTTCCATGGACCGGTTTTCCCGGTAATCCGTATTTGCC (site TACTTTCCTGG) | 0
65 | TAGAAAACATGGACCGGTTTTCCCGGTAATCCGTATTTGCA (site TAGAAAACTTG) | 1.54
66 | TAGAAAACATGGACCGGTTTTCCCGGTAATCCGTATTTGCA (site TAGAACACTTG) | 1.57
67 | TAGAAAACATGGACCGGTTTTCCCGGTAATCCGTATTTGCA (site TAGAAGACTTG) | 0.00894
68 | TAGAAAACATGGACCGGTTTTCCCGGTAATCCGTATTTGCA (site TAGAATACTTG) | 0
69 | TAGAAGACATGGACCGGTTTTCCCGGTAATCCGTATTTGCA (site TAGAAAACTTG) | 0
70 | TAGAAGACATGGACCGGTTTTCCCGGTAATCCGTATTTGCA (site TAGAACACTTG) | 0.985
71 | TAGAAGACATGGACCGGTTTTCCCGGTAATCCGTATTTGCA (site TAGAAGACTTG) | 2.51
72 | TAGAAGACATGGACCGGTTTTCCCGGTAATCCGTATTTGCA (site TAGAATACTTG) | 0
73 | TAGAATACATGGACCGGTTTTCCCGGTAATCCGTATTTGCG (site TAGAATACTAG) | 0
74 | TAGAATACATGGACCGGTTTTCCCGGTAATCCGTATTTGCG (site TAGAATACTCG) | 2.06
75 | TAGAATACATGGACCGGTTTTCCCGGTAATCCGTATTTGCG (site TAGAATACTGG) | 0
